The values below come from ChEMBL document CHEMBL1201862, “PubChem BioAssay data set” (2004).

Each structure is given as a SMILES string. Active and inactive are the calls of the source. Bounds are passed on as bounds.

A short description of assay [1]: inhibitors of HIV Env-driven cell fusion, dose response, cherry-pick (AID 652057). The class given is functional, cell-based.
A short description of assay [2]: ZM109 Env clade C HIV-1 fusion inhibitors, dose response, HeLa effector, CEM target cells, luciferase, cherry-pick (AID 652058). The class given is functional, cell-based.
A short description of assay [3]: off-target signal loss in HeLa-CEM21 co-culture – HeLa F-luc CTL cells, cherry-picked, counter-screen for HIV-1 Env fusion inhibitor project, dose response (AID 652040).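 Also: potency for signal decrease marking cytotoxic or nonspecific inhibition.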 It counts as functional, cell-based. Background: Counterscreens check selectivity or assay interference.
The nature of assay [4]: inhibitors of clade B AD8 Env fusion, dose response, cell-based, cherry-pick (AID 652062).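 Also: luciferase signal from cell-cell fusion driven by HIV-1 clade B AD8 Env; potency is for inhibitors of fusion seen as a drop in luminescence.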 The class given is functional.
Assay [5] addresses T1, Polyadenylate-binding protein 1 (Homo sapiens, UniProt P11940). Description: PABP1 MLLE–PAM2 binding inhibitor potency, dose response, biochemical, fluorescence polarization, FITC-PAM2 peptide (AID 602259). It counts as functional. The note with it: read-out: IC50_Mean.
In assay [6] the target is T1, Polyadenylate-binding protein 1. Description: PABP1 MLLE–PAM2 interaction inhibitors, dose response, miRNA deadenylation inhibitor project, biochemical, fluorescence polarization, Cy5-PAM2 peptide, secondary (AID 602260). It counts as functional. The note with it: read-out: IC50_Mean.
The next assay deals with T2, Protein skinhead-1 (Caenorhabditis elegans, UniProt P34707).
T2 sequence (P34707 whole entry): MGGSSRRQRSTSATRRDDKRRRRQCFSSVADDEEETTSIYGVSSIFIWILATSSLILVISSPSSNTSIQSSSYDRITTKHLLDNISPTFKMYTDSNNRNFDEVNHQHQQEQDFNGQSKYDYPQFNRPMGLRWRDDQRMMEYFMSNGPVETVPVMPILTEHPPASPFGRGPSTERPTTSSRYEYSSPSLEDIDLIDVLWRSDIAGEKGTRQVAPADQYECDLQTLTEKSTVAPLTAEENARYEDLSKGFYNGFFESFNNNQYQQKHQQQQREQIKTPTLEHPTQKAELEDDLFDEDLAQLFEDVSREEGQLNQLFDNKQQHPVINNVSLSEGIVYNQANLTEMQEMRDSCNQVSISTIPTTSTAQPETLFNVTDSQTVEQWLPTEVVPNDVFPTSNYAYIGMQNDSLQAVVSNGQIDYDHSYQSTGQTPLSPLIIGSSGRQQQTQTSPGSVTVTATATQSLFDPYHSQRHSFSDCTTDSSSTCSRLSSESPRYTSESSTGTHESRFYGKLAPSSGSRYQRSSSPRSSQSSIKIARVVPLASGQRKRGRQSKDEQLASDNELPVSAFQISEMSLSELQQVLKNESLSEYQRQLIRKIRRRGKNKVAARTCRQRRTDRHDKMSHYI
It counts as functional.

Assay [7] deals with Eukaryotic translation initiation factor 4E (Mus musculus, UniProt P63073). Description: eIF4E–eIF4G protein interaction inhibitors, dose response, biochemical, TR-FRET (AID 855).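 Also: potency for disrupting eIF4E binding to eIF4GI seen as loss of FRET.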 The class given is functional. (Time-resolved FRET reads energy transfer from a long-lived donor to a nearby acceptor.)
A short description of assay [8]: cytotoxicity toward NIH3T3 fibroblasts, dose response, counter-screen, cell-based, ATP luminescence, mouse fibroblasts (AID 2010).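 Also: cells exposed to compound for about 90 hours before reading.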 It counts as functional.
In a further assay the target is Nonstructural protein 1 (Influenza A virus, UniProt Q194T2). The class given is functional, Influenza A virus (A/California/07/2009(H1N1)).
Assay [9] in a line: inhibitors of intracellular T. cruzi replication, confirmation, NIH3T3 host cells, beta-gal luminescence (AID 2044).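 Also: intracellular parasites grown in NIH/3T3 mouse fibroblasts as host cells; luminescent beta-galactosidase reporter signal from transgenic T. cruzi replicating inside host cells; inhibitors lower the luminescence signal.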 It counts as functional, cell-based.
Assay [10] has as its target T3, Rac GTPase-activating protein 1 (Homo sapiens, UniProt Q9H0H5).
T3 sequence (Q9H0H5 whole entry): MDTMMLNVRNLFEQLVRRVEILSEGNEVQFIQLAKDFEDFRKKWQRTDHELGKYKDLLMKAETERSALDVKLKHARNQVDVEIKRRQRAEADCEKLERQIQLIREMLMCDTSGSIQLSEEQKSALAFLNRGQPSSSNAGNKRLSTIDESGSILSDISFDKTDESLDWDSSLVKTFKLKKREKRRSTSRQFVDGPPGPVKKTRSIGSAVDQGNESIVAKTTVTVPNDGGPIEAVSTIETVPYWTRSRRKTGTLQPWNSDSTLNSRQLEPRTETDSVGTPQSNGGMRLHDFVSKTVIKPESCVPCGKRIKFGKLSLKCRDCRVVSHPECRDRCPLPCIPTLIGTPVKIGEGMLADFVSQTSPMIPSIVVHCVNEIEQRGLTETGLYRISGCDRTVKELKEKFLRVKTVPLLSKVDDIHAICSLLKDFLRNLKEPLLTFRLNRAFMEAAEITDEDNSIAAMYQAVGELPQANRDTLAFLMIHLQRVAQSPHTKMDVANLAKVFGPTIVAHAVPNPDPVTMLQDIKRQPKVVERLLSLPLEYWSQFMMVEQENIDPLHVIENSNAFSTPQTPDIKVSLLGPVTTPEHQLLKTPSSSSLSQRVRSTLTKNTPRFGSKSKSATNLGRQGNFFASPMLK
Briefly: MgcRacGAP GTPase-activating activity inhibitors, confirmation, biochemical, ADP Hunter fluorescence, primary and confirmatory (AID 624330). It counts as functional.

Assay [11] deals with T4, RNA-binding protein pos-1 (Caenorhabditis elegans, UniProt G5EF15).
T4 sequence (G5EF15 whole entry): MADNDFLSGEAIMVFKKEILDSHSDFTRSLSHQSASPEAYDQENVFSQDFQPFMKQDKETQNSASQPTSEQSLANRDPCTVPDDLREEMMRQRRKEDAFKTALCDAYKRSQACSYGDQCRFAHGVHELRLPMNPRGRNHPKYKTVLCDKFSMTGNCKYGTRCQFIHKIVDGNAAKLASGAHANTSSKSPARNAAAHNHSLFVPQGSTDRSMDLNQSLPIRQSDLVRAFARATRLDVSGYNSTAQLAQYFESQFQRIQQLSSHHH
Description: inhibitors of POS-1/mex-3 RNA binding, dose response, biochemical, fluorescence polarization (AID 1964).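 Also: purified POS-1 fused to maltose binding protein made in E. coli; potency of compounds blocking POS-1 binding to fluorescent RNA.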 Background: Fluorescence polarisation rises when a labelled molecule tumbles more slowly, as on binding a larger partner.

For assay [12], the target named is T5, Zinc finger protein mex-5 (Caenorhabditis elegans, UniProt Q9XUB2).
T5 sequence (Q9XUB2 whole entry): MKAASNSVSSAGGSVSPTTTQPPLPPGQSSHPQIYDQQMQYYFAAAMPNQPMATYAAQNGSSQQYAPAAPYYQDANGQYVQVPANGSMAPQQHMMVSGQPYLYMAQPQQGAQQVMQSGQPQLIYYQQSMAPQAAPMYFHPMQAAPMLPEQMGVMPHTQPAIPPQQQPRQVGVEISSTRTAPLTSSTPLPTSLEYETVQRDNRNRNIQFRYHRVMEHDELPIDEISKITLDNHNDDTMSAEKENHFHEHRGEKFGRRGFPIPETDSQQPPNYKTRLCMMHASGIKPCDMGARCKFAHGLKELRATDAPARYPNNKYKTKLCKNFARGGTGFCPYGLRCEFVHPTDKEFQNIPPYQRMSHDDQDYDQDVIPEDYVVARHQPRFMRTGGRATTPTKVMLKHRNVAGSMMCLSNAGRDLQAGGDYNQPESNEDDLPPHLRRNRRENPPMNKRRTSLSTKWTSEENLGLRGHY
Description: MEX-5/TCR-2 RNA interaction inhibitors, dose response, biochemical, C. elegans, fluorescence polarization (AID 1960).

Assay [13] can be described thus: Luminescence Cell-Based Dose Retest to Confirm Inhibitors of Cancer Stem Cells. [Related pubchem assays (depositor defined):AID2717, AID2721]. It counts as functional. The note with it: Homo sapiens.
The target in assay [14] is Induced myeloid leukemia cell differentiation protein Mcl-1 (Homo sapiens, UniProt Q07820). It counts as functional.
A short description of assay [15]: NIH-3T3 fibroblast cytotoxicity, dose response, cytotoxicity control, cell-based, fluorescence, Alamar Blue, secondary assay (AID 2327).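 Also: NIH-3T3 mouse fibroblasts cultured with fluconazole at 8 µg/mL.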 It counts as functional.
Assay [16] can be described thus: C. albicans growth with fluconazole, confirmation, fluorescence, retest (AID 2467). It counts as functional, cell-based.
For assay [17], the target named is T6, Calpain-2 catalytic subunit (Sus scrofa, UniProt P43367).
T6 sequence (P43367 whole entry): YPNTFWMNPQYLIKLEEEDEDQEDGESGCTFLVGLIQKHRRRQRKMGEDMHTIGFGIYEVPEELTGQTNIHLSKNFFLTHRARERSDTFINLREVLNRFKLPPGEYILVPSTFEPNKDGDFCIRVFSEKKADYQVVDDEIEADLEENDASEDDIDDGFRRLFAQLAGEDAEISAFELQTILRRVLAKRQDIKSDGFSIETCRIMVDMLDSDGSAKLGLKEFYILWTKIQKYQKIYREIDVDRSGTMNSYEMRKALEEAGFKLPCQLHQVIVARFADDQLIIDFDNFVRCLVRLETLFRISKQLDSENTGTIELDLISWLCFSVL
Briefly: pig calpain II inhibitor potency, dose response, biochemical, fluorogenic peptide substrate (AID 1420). The class given is functional.

The AC50 is the concentration at which the activity in the assay is half-maximal. The term EC50 denotes the concentration that produces a half-maximal response.

Sequence of Eukaryotic translation initiation factor 4E (P63073 whole entry): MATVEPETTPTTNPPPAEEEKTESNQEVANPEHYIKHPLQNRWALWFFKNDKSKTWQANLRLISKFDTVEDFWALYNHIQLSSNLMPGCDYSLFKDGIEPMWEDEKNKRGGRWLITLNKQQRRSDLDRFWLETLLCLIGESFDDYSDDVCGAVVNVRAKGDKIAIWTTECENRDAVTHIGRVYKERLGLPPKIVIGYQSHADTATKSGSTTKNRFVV
T1 sequence (P11940 whole entry): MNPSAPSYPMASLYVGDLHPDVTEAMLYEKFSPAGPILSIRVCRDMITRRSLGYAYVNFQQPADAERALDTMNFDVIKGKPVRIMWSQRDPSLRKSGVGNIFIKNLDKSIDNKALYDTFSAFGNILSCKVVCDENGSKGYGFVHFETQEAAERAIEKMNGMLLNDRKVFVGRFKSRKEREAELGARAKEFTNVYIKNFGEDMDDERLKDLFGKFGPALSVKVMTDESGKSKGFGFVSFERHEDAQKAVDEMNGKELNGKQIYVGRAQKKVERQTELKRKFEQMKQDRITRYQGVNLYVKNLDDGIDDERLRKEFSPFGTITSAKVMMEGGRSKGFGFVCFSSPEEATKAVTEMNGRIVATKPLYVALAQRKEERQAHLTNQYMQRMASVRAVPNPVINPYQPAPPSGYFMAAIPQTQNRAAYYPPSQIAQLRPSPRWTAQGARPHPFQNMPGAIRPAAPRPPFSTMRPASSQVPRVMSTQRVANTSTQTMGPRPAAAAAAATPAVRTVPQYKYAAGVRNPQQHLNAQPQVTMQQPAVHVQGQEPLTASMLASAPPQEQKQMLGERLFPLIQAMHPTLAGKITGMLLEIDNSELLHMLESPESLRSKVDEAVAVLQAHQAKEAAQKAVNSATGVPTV
Sequence of Induced myeloid leukemia cell differentiation protein Mcl-1 (Q07820 whole entry): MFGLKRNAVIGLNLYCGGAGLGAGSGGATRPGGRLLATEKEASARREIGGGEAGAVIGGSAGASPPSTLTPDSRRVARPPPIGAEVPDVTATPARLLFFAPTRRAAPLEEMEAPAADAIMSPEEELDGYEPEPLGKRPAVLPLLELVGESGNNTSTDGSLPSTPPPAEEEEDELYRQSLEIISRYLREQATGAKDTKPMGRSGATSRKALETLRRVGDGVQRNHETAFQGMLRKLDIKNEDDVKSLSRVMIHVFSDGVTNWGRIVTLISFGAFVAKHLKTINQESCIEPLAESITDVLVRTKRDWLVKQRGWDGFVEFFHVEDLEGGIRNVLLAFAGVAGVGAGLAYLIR
Sequence of Nonstructural protein 1 (Q194T2 whole entry): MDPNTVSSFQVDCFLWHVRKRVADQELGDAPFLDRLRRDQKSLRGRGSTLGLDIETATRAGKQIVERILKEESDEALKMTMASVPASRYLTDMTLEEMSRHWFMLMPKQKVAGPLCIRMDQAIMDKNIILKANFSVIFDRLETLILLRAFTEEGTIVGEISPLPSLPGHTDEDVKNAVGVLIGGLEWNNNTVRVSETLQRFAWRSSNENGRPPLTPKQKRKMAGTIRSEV

Consider `CN(C)C(=O)CCC(=O)N1CCCC(C(=O)c2ccc3c4c(cccc24)CC3)C1` (configuration not stated), for which the AC50 in assay [1] was 0.498 µM (active); in assay [2], 0.53 µM (active); in [3], 0.753 µM (active); in [4] it was 2.71 µM (active).

In the case of `CN=C(S)SCCOc1ccccc1`, the IC50 in assay [5] and in [6] was > 66 µM (inactive) in each case.

Take `Cc1cc2cc(CNC(=O)Nc3ccccc3)ccc2n1C`: the values for the IC50 (in assay [5]; on Protein skinhead-1; in assay [6]) were > 66 µM (inactive), > 100 µM (inactive) and > 66 µM (inactive), respectively.

Turning to `CCOC(=S)SCc1cn2cccc(C)c2n1`, the IC50 in [5] and in assay [6] was > 66 µM (inactive) throughout.

For `COc1ccc2c(c1)OC[C@H]1[C@H]2N2C(=O)CN(Cc3ccc(C)cc3)C(=O)[C@@]2(C)[C@H]1c1ccccc1`, the AC50 in assay [1] was 7.77 µM (active); in [2], 15.5 µM (active); in assay [3] it was 26.9 µM (active); in assay [4], 5.83 µM (active).

With `CC1CCCCN1C(=O)Cn1nnc(-c2cccnc2)n1` (configuration not stated), the IC50 in assay [5] was 17 µM (active); in assay [6], > 66 µM (inactive).

In the case of `CC1=CC2=NC(=O)CC(C)(C(=O)N(CC(=O)NC3CCCC3)c3cc(C)cc(C)c3)N2C=C1` (configuration not stated), the IC50 in assay [7] was 50 µM (inactive).

As to `CC(=O)N1CCN(c2ccc(NC(=S)NC(=O)COc3ccc(C(C)(C)C)cc3)cc2)CC1`, the IC50 in assay [5] and in assay [6] was > 66 µM (inactive) in each case.

For `Nc1ccc(N(c2ccccc2)c2ccc(N)cc2)cc1`, the values for the EC50 in [8] and in assay [9] were > 60 µM (not active) and 1.81 µM (active), respectively. The IC50 at Nonstructural protein 1 was 9.26 µM (active); in [7], > 64 µM (inactive); in assay [10], 8.57 µM (active).

For `COc1ccc(C(=S)N2CCC(C(N)=O)CC2)cc1Br`, the IC50 in [5] and in assay [6] was > 66 µM (inactive) each time.

`COc1ccc(CCNC(=O)c2nn(C)c3c2CS(=O)(=O)c2ccccc2-3)cc1OC`: the EC50 in assay [11] and in assay [12] was > 300 µM (not active) each time.

Take `CN1C(=O)C(=Cc2ccc(SC3CCCCC3)o2)C(=O)N(C)C1=O`: the EC50 in assay [11] and in assay [12] was > 300 µM (not active) each time.

Consider `CCOc1cc(C(=O)Nc2ccc3c4c(cccc24)C(=O)N3CC)cc(OCC)c1OCC`, for which the IC50 in assay [7] is > 64 µM (inactive).

For the compound `Cc1cc(C)n2nc(C(=O)NCc3ccccc3)cc2n1`, the IC50 in [7] was > 64 µM (inactive).

For the compound `COc1cccc(C2C(C#N)=C(N)OC3=C2C(=O)CCC3)c1OC(=O)c1ccco1` (configuration not stated), the EC50 in assay [11] and in assay [12] was > 300 µM (not active) in each case.

For the compound `Cc1cc([N+](=O)[O-])ccc1-c1ccc(/C=N/NC(=O)c2ccc(Br)o2)o1`, the AC50 in assay [13] was 2.35 µM (active). For the same compound, the EC50 in assay [11] was 19.7 µM (active); in [12] it was 5.51 µM (active).

For the compound `O=C(O)c1ccccc1N/N=C/c1c(Sc2nnnn2-c2ccccc2)nc2ccccn2c1=O`, the EC50 in assay [11] was > 300 µM (not active); in assay [12] it was 116 µM (active). Besides, the IC50 in assay [14] is 2.58 µM (active).

Turning to `CCN(CC)c1ccc(/N=C/c2c(C)[nH]c3ccccc23)cc1`, the IC50 at Nonstructural protein 1 is 29.3 µM (active); in assay [7], > 64 µM (inactive); in [10], 43.7 µM (active).

Turning to `O=C(N/N=C/c1sc(N2CCOCC2)nc1-c1ccccc1)c1cccc(S(=O)(=O)N2CCOCC2)c1`, the AC50 in assay [1] was 4.02 µM (active); in assay [2], 4.42 µM (active); in assay [3] it was 6.84 µM (active); in assay [4] it was 3.47 µM (active). Further, the EC50 in [15] was > 150 µM (inactive); in assay [16] it was > 38 µM (not active).

Turning to `N#Cc1c(NC(=O)c2cccc(S(=O)(=O)Nc3ccc(C(=O)O)cc3)c2)sc2c1CCCC2`, the IC50 in assay [14] is 6.52 µM (active); in assay [17], 13.7 µM (not active).
